Measurements from ChEMBL document CHEMBL1221370, “Steroidal saponins from fresh stems of Dracaena angustifolia” (J Nat Prod, 2010).
Values after ≈ are worked out from the molar mass of the structure shown. Active and inactive are the calls of the source. No cut-off for these calls is given here.

Columns and labels:
Format in all cases: functional, organism-based
Cryptococcus neoformans = experiment: Antifungal activity against Cryptococcus neoformans ATCC 90113 by broth dilution method
Candida albicans = experiment: Antifungal activity against Candida albicans ATCC 90028 by broth dilution method
Nakaseomyces glabratus = experiment: Antifungal activity against Candida glabrata ATCC 90030 by broth dilution method
Pichia kudriavzevii = experiment: Antifungal activity against Candida krusei ATCC 6258 by broth dilution method
Aspergillus fumigatus = experiment: Antifungal activity against Aspergillus fumigatus ATCC 90906 by broth dilution method

IC50 (Cryptococcus neoformans) [µg/mL] | Structure (SMILES) | Activity (Candida albicans) | Activity (Nakaseomyces glabratus) | Activity (Pichia kudriavzevii) | Activity (Aspergillus fumigatus) | Activity (Cryptococcus neoformans)
20 (≈ 28.2 µM) | C[C@H]1CC[C@@]2(OC1)OC1C[C@H]3[C@@H]4CC=C5C[C@@H](O)C[C@@H](O[C@@H]6OC[C@H](O)[C@H](O)[C@H]6O[C@@H]6O[C@@H](C)[C@H](O)[C@@H](O)[C@H]6O)[C@]5(C)[C@H]4CC[C@]3(C)[C@H]1[C@@H]2C (stereo partly specified) | inactive | inactive | inactive | inactive | 
 | C=C1CC[C@@]2(OC1)OC1C[C@H]3[C@@H]4CC=C5C[C@@H](O)C[C@@H](O[C@@H]6OC[C@H](OS(=O)(=O)O)[C@H](O)[C@H]6O[C@@H]6O[C@@H](C)[C@H](O)[C@@H](O)[C@H]6O)[C@]5(C)[C@H]4CC[C@]3(C)[C@H]1[C@@H]2C (stereo partly specified) | inactive | inactive | inactive | inactive | inactive
 | C=C1CO[C@]2(C[C@H]1O)OC1C[C@H]3[C@@H]4CC=C5C[C@@H](O)C[C@@H](O[C@@H]6OC[C@H](OS(=O)(=O)O)[C@H](O)[C@H]6O[C@@H]6O[C@@H](C)[C@H](O)[C@@H](O)[C@H]6O)[C@]5(C)[C@H]4CC[C@]3(C)[C@H]1[C@@H]2C (stereo partly specified) | inactive | inactive | inactive | inactive | inactive
 | C=C1CC[C@@]2(OC1)OC1C[C@H]3[C@@H]4[C@@H](O)C=C5C[C@@H](O)C[C@@H](O[C@@H]6OC[C@H](OS(=O)(=O)O)[C@H](O)[C@H]6O[C@@H]6O[C@@H](C)[C@H](O)[C@@H](O)[C@H]6O)[C@]5(C)[C@H]4CC[C@]3(C)[C@H]1[C@@H]2C (stereo partly specified) | inactive | inactive | inactive | inactive | inactive
9.5 (≈ 13.7 µM) | C[C@H]1CC[C@@]2(OC1)OC1C[C@H]3[C@@H]4CC=C5C[C@@H](O)C[C@@H](O[C@@H]6OC[C@H](O)[C@H](O[C@@H]7OC[C@@H](O)[C@H](O)[C@H]7O)[C@H]6O)[C@]5(C)[C@H]4CC[C@]3(C)[C@H]1[C@@H]2C (stereo partly specified) [ANGUDRACANOSIDE F] | inactive | inactive | inactive | inactive | 
 | C[C@H]1CC[C@@]2(OC1)OC1C[C@H]3[C@@H]4C(=O)C=C5C[C@@H](O)C[C@@H](O[C@@H]6OC[C@H](OS(=O)(=O)O)[C@H](O)[C@H]6O[C@@H]6O[C@@H](C)[C@H](O)[C@@H](O)[C@H]6O)[C@]5(C)[C@H]4CC[C@]3(C)[C@H]1[C@@H]2C (stereo partly specified) | inactive | inactive | inactive | inactive | inactive
2.5 (≈ 2.71 µM) | C[C@@H]1[C@H](O)[C@@H](C)/C=C/C=C/C=C/C=C/C=C/C=C/C=C/[C@H](O[C@@H]2O[C@H](C)[C@@H](O)[C@H](N)[C@@H]2O)C[C@@H]2O[C@](O)(C[C@@H](O)C[C@@H](O)[C@H](O)CC[C@@H](O)C[C@@H](O)CC(=O)O[C@H]1C)C[C@H](O)[C@H]2C(=O)O [AMPHOTERICIN B] |  |  |  |  | 
